The target in data set [1] is T1, SARS-CoV-2 3CL^pro (Severe acute respiratory syndrome coronavirus 2, UniProt P0DTD1). Put plainly: biochemical. The data set is classed as biochemical. As to conditions: for IC50: FRET dose-response, 100 nM 3CL^pro pre-incubated 30 min at 30 °C, 10 µM substrate, read-out: IC50 against SARS-CoV-2 3CL^pro.
The target of a further data set is Cathepsin L (Homo sapiens, UniProt P07711). Put plainly: Counter screen against Cathepsin L. The data set is classed as biochemical. As to conditions: dose-response, Figure S1. (Counterscreens check selectivity or assay interference.)
A further data set is described as follows: in vitro. The conditions noted are these: human.
The target of data set [2] is Norovirus RNA-dependent RNA polymerase (RdRp) (Norovirus, UniProt Q83883). As to the kind of experiment: BLI binding assay, non-specific binding control. The conditions noted are these: Figure S2. On the technique in general: BLI is a label-free optical method that tracks binding on a fibre tip over time.
Data set [3] concerns the target T1, SARS-CoV-2 3CL^pro. As to the kind of experiment: Bio-layer interferometry (BLI) kinetic binding assay. As to conditions: for Binding to SARS-CoV-2 3CL^pro: 6.25 to 100 or 200 µM; for koff: read-out: Kdis.
In data set [4] the target is T1, SARS-CoV-2 3CL^pro. Put plainly: cell-based.
The test system of a further data set is rats. As to conditions: taken orally, ref [7],[34]; cited from earlier work.
[5] abbreviates: single concentration of 20 μM, normalized to DMSO control.

Read-outs that look alike come from different tables or passages of the source. Where only a bound is given, the exact number is not on record here.

Norovirus RNA-dependent RNA polymerase (RdRp), sequence (Q83883 1282-1789): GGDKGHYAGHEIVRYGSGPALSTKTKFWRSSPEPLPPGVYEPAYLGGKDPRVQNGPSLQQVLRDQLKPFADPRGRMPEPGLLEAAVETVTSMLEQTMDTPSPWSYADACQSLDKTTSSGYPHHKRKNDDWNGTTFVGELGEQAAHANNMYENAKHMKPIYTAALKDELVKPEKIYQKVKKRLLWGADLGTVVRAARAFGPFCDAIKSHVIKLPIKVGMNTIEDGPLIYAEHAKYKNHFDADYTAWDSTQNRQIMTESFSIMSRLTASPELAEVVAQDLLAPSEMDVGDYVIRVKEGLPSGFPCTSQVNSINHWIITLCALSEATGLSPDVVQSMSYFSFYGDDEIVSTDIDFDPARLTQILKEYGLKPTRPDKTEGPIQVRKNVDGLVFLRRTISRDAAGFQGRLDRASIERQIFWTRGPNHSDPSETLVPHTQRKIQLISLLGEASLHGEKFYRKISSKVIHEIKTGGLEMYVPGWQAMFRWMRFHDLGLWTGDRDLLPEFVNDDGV
Cathepsin L, sequence (P07711 114-333): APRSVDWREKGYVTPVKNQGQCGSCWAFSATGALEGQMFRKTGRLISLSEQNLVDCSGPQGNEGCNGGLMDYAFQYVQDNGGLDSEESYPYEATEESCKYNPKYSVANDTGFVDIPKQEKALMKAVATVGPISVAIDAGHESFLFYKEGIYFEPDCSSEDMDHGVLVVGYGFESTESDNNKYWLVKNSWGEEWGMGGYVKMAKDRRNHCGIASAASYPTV

For `CC(C)CN(C[C@@H](O)[C@H](Cc1ccccc1)NC(=O)O[C@H]1CO[C@H]2OCC[C@H]21)S(=O)(=O)c1ccc(N)cc1` [Darunavir], on SARS-CoV-2 3CL^pro [1] (setting [5]), the “Inhibition of 3CL^pro activity in primary screening” value (“Inhibition of 3CL^pro activity” for short) is “no inhibitory activity”.

Turning to `COc1ccc(S(=O)(=O)N(CC(C)O)CC(O)C(Cc2ccccc2)NC(=O)c2ccc(O)c(O)c2)cc1` (stereo not drawn) [29#], the “Inhibitory effect against Cathepsin L” value at Cathepsin L is “very limited inhibitory effect”. In “in vitro”, this compound showed a CC50 of 24.8 µM. Also, the “KD with Norovirus RdRp” value in data set [2] is recorded as “either a large KD value or a not-detected KD value”. Besides, the Hill slope – broadly, the slope factor of the fitted curve – at SARS-CoV-2 3CL^pro [1] (FRET dose-response curve) was 1.78±0.32. In addition, the IC50 (in general, the concentration that gives 50% inhibition) at SARS-CoV-2 3CL^pro [1] is 6.3 µM. On SARS-CoV-2 3CL^pro [1] (setting [5]), the “Inhibition of 3CL^pro activity” value is on record as “significant inhibition”. For the same compound, the “Binding to SARS-CoV-2 3CL^pro” value on SARS-CoV-2 3CL^pro [3] (BLI) is on record as “dose-dependent manner”. Further, on SARS-CoV-2 3CL^pro [3] (ForteBio Octet System), the Kd (commonly the constant that tells how readily two partners part at equilibrium) was determined as 52.7 µM, the kon (usually the second-order rate constant of association) amounted to 374 M⁻¹ s⁻¹ and the koff was determined as 0.0197 s⁻¹. Besides, a half-maximal effect at SARS-CoV-2 3CL^pro [4] (EC50) was put at 8.9 µM.

`COc1ccc(S(=O)(=O)N(CC(C)O)CC(O)C(Cc2ccccc2)NC(=O)C2(O)CC(O)C(O)C(OC(=O)C=Cc3ccc(O)c(O)c3)C2)cc1` (stereo not drawn) [50#]: the “Inhibitory effect against Cathepsin L” value at Cathepsin L is reported as “very limited inhibitory effect”. This compound also had a CC50 in “in vitro” of 49 µM. Further, the “KD with Norovirus RdRp” value in data set [2] is reported as “either a large KD value or a not-detected KD value”. The Hill slope on SARS-CoV-2 3CL^pro [1] (FRET dose-response curve) was found to be 1.93±0.30. For the same compound, the IC50 on SARS-CoV-2 3CL^pro [1] was determined as 3.5 µM. Besides, the “Inhibition of 3CL^pro activity” value on SARS-CoV-2 3CL^pro [1] (setting [5]) is recorded as “significant inhibition”. Further, on SARS-CoV-2 3CL^pro [3] (BLI), the Kd worked out at 62 µM and the “Binding to SARS-CoV-2 3CL^pro” value is “dose-dependent manner”. On SARS-CoV-2 3CL^pro [3] (ForteBio Octet System), the affinity, expressed as Kd, was 62.1 µM; the kon is 455 M⁻¹ s⁻¹; the koff amounted to 0.0282 s⁻¹. Besides, the EC50 – broadly, the concentration at which the effect is half-maximal – on SARS-CoV-2 3CL^pro [4] is 13.5 µM.

In the case of `O=c1c2ccccc2[se]n1-c1ccccc1` [Ebselen, ebselen, reference compound], at SARS-CoV-2 3CL^pro [1], the Hill slope stood at 1.91±0.22 and the “Inhibition of 3CL^pro activity” value is recorded as “strongly inhibit”. Moreover, the median lethal dose in the data set with rats was > 4600 mg/kg.

(Values after publication PMC9781983, “Identification of Darunavir Derivatives for Inhibition of SARS-CoV-2 3CL^pro” (International Journal of Molecular Sciences, 2022).)
